Key:
Format in all cases: in vitro ADME
[1] = Hepatocyte Stability Assay, human; conditions: cryopreserved hepatocytes, read-out: Human hepatocyte clearance
Description: (§1) Preparation of working solutions: 10 mM stock solutions of test compound and positive control were prepared in DMSO. In separate conical tubes, the 10 mM solution of test compound and the positive control were diluted to 100 μM by combining 198 μL of 50% acetonitrile/50% water and 2 μL of 10 mM stock.
(§2) Preparation of Hepatocytes: Incubation medium (William's E Medium supplemented with GlutaMAX) and hepatocyte thawing medium were placed in a 37° C. water bath and allowed warming for at least 15 minutes prior to use. A vial of cryopreserved hepatocytes was transferred from storage, ensuring that vials remained at cryogenic temperatures until thawing process ensued. Cells were thawed by placing the vial in a 37° C. water bath and gently shaking the vials for 2 minutes. […] Using an AO/PI Staining, cells were counted and the viable cell density was determined. Cells with poor viability (<75% viability) were determined to be not acceptable for use. […]
(§3) Data Analysis: All calculations were carried out using Microsoft Excel. Peak areas were determined from extracted ion chromatograms. In vitro half-life (t1/2) of parent compound was determined by regression analysis of the percent parent disappearance vs. time curve.
(§4) The in vitro half-life (in vitro t1/2) was determined from the slope value: in vitro t1/2=0.693/k […]

[2] = Hepatocyte Stability Assay, rat; conditions: cryopreserved hepatocytes, read-out: Rat hepatocyte clearance
Description: as §1, §2, §3, §4

[3] = Plasma Protein Binding Determination with Ultracentrifugation Method; conditions: human plasma, read-out: Human plasma protein binding (% bound)
Description: The frozen plasma (stored at −80° C.) was thawed in a 37° C. water bath, followed by centrifugation at 3,220 g for 10 minutes to remove clots. The supernatant was removed into a new tube as the spun plasma. The spun plasma was pre-warmed in a 37° C. water bath for 10 minutes. The stock solutions of test compounds were diluted to 200 μM in DMSO, and then spiked into the plasma. Duplicate samples were prepared. The final concentration of compound was 1.0 μM. The final concentration of organic solvent was 0.5%. Warfarin was used as positive control in the assay. 1.0 mL of the spiked plasma was transferred to a new balance ultracentrifuge tube. Samples were incubated at 37° C., 5% CO2 for 30 minutes. After incubation, the balance ultracentrifuge tubes were centrifuged at 600,000 g for 5.5 hours at 37° C. […]
Data Analysis: All calculations were carried out using Microsoft Excel. The concentrations of test compound in plasma samples and post-ultracentrifugation plasma was determined from peak areas. The percentages of test compound bound was calculated as follows: […]

For `Cn1nccc1C(=O)Nc1ccc2nc(-c3ccccc3C(F)(F)F)[nH]c2c1` [A, 1-methyl-N-(2-(2-(trifluoromethyl)phenyl)-1H-benzo[d]imidazol-6-yl)-1H-pyrazole-5-carboxamide], the CLint scaled at 1 μM [1] was < 20 mL/min/kg.

With `Cn1ncnc1C(=O)Nc1ccc2nc(-c3ccccc3C(F)(F)F)[nH]c2c1` [Compound H, 1-methyl-N-(2-(2-(trifluoromethyl)phenyl)-1H-benzo[d]imidazol-6-yl)-1H-1,2,4-triazole-5-carboxamide] the CLint scaled at 1 μM [1] was < 20 mL/min/kg, the CLint scaled at 1 μM [2] was < 20 mL/min/kg and the fraction unbound at 30 min, 1 μM [3] was < 0.25.
